According to ChEMBL document CHEMBL4616724, “Topoisomerase Inhibitors Addressing Fluoroquinolone Resistance in Gram-Negative Bacteria” (J Med Chem, 2020):
Converted amounts (≈) assume the structure as drawn.

How the values were obtained:
Escherichia coli [1] = test: Antibacterial activity against wild type Escherichia coli ATCC 25922 at pH 7.4 by CLSI-based broth microdilution assay; type: functional
Pseudomonas aeruginosa [2] = test: Antibacterial activity against wild type Pseudomonas aeruginosa PAO1 K767 by CLSI-based broth microdilution assay; type: functional
Klebsiella pneumoniae = test: Antibacterial activity against wild type Klebsiella pneumoniae ATCC 43816 by CLSI-based broth microdilution assay; type: functional
Pseudomonas aeruginosa [3] = test: Antibacterial activity against Pseudomonas aeruginosa K1542/K767 harboring MexB/MexXY deletion mutant by CLSI-based broth microdilution assay; type: functional
Pseudomonas aeruginosa [4] = test: Antibacterial activity against Pseudomonas aeruginosa NB52023 harboring gyrA T83I mutant/ParC S87L mutant by CLSI-based broth microdilution assay; type: functional
Escherichia coli [5] = test: Antibacterial activity against Escherichia coli BW25113/JW0451-2 harboring AcrB deletion mutant by CLSI-based broth microdilution assay; type: functional
[6] = Solubility of the compound in pH 7 PBS incubated for 24 hrs under gently shaking condition by UPLC/UV/CLND/MS analysis; type: physicochemical
[7] = n-Octanol-PBS buffer partition coefficient, log D of the compound at pH 7.4 after overnight incubation by LC/UV/qTOF analysis; type: physicochemical
DNA gyrase = DNA gyrase (Escherichia coli, UniProt P0AES4+P0AES6); test: Inhibition of recombinant full-length C-terminal His6-tagged Escherichia coli DNA gyrase AB supercoiling activity using relaxed DNA as substrate preincubated for 30 mins followed by substrate addition and measured after 2 hrs in presence of ATP by size exclusion HPLC analysis; type: protein-complex assay
[8] = Inhibition of recombinant full-length C-terminal His6-tagged Escherichia coli DNA topoisomerase 4 subunit ParC/ParE using kinetoplast DNA as substrate preincubated for 30 mins followed by substrate addition and measured after 1 hr in presence of ATP by size exclusion chromatography
[9] = Protein binding in CD1 mouse plasma at 10 uM incubated for 4 hrs under shaking condition by LC-MS/MS analysis; type: ADME, cell-free; settings: read-out: PPB (converted)
[10] = Protein binding in Sprague-Dawley rat plasma at 10 uM incubated for 4 hrs under shaking condition by LC-MS/MS analysis; type: ADME, cell-free; settings: read-out: PPB (converted)
[11] = Protein binding in pooled human plasma at 10 uM incubated for 4 hrs under shaking condition by LC-MS/MS analysis; type: ADME, cell-free; settings: read-out: PPB (converted)
[12] = Intrinsic clearance in rat liver microsomes at 1 uM in presence of NADPH and measured up to 30 mins by LC-MS/MS analysis; type: ADME, Microsome; settings: read-out: CLH
[13] = Intrinsic clearance in human liver microsomes at 1 uM in presence of NADPH and measured up to 30 mins by LC-MS/MS analysis; type: ADME, Microsome; settings: read-out: CLH
Escherichia coli [14] = test: Antibacterial activity against wild type Escherichia coli ATCC 25922 at pH 5.8 by CLSI-based broth microdilution assay; type: functional

Question: What does the source list for Cc1c(N2CC[C@@H]([C@H](C)N)C2)c(F)cc2c(Cl)cc(=O)n(C3CC3)c12?
Answer: MIC (Escherichia coli [1]): 2 µg/mL (≈ 5.5 µM); MIC (Pseudomonas aeruginosa [2]): 8 µg/mL (≈ 22 µM); MIC (Klebsiella pneumoniae): 4 µg/mL (≈ 11 µM); MIC (Pseudomonas aeruginosa [3]): 4 µg/mL (≈ 11 µM); MIC (Pseudomonas aeruginosa [4]): 8 µg/mL (≈ 22 µM); MIC (Escherichia coli [5]): 0.06 µg/mL (≈ 0.165 µM)

Question: For Cc1c(N2CC[C@@H]([C@H](C)N)C2)c(F)cc2ccc(=O)n(C3CC3)c12, which MIC (Escherichia coli [1]) is on record?
Answer: 1 µg/mL (≈ 3.04 µM)

Question: And the MIC (Pseudomonas aeruginosa [2])?
Answer: 16 µg/mL (≈ 48.6 µM)

Question: What about the solubility at 24 h ([6]; PBS, pH 7) of the same molecule?
Answer: 498 µg/mL (≈ 1510 µM)

Question: What about the logD [7] of the same molecule?
Answer: 0.74

Question: And the IC50 (DNA gyrase)?
Answer: 430 nM

Question: And the IC50 [8]?
Answer: 390 nM

Question: What about the MIC (Klebsiella pneumoniae) of the same molecule?
Answer: 4 µg/mL (≈ 12.1 µM)

Question: What about the MIC (Pseudomonas aeruginosa [3]) of the same molecule?
Answer: 4 µg/mL (≈ 12.1 µM)

Question: And the MIC (Pseudomonas aeruginosa [4])?
Answer: 8 µg/mL (≈ 24.3 µM)

Question: What about the MIC (Escherichia coli [5]) of the same molecule?
Answer: 0.06 µg/mL (≈ 0.182 µM)

Question: And the fraction unbound at 4 h, 10 µM [9]?
Answer: 0.19

Question: What about the fraction unbound at 4 h, 10 µM [10] of the same molecule?
Answer: 0.25

Question: And the fraction unbound at 4 h, 10 µM [11]?
Answer: 0.1

Question: And the microsomal CLint at 1 µM [12]?
Answer: 10 µL/min/mg

Question: And the microsomal CLint at 1 µM [13]?
Answer: < 7.7 µL/min/mg

Question: What about the MIC (Escherichia coli [14]) of the same molecule?
Answer: 16 µg/mL (≈ 48.6 µM)

Question: Which MIC (Escherichia coli [1]) does the source give for COc1c(N2CC3(C)CC3(N)C2)c(F)cc2c(CN)cc(=O)n(C3CC3)c12 (stereo not given) here?
Answer: 1 µg/mL (≈ 2.68 µM)

Question: And the MIC (Pseudomonas aeruginosa [2])?
Answer: 32 µg/mL (≈ 85.9 µM)

Question: And the MIC (Klebsiella pneumoniae)?
Answer: 4 µg/mL (≈ 10.7 µM)

Question: What about the MIC (Pseudomonas aeruginosa [3]) of the same molecule?
Answer: 8 µg/mL (≈ 21.5 µM)

Question: And the MIC (Pseudomonas aeruginosa [4])?
Answer: 16 µg/mL (≈ 43 µM)

Question: What about the MIC (Escherichia coli [5]) of the same molecule?
Answer: 0.25 µg/mL (≈ 0.671 µM)

Question: With Cc1c(-c2cc(F)c(N)cc2F)c(F)cc2c(CN)cc(=O)n(C3CC3)c12 as the molecule, how does the MIC (Escherichia coli [1]) read?
Answer: 0.25 µg/mL (≈ 0.67 µM)

Question: And the MIC (Pseudomonas aeruginosa [2])?
Answer: 8 µg/mL (≈ 21.4 µM)

Question: And the solubility ([6]; buffer, pH 7, 24 h)?
Answer: Insoluble

Question: And the MIC (Klebsiella pneumoniae)?
Answer: 1 µg/mL (≈ 2.68 µM)

Question: And the MIC (Pseudomonas aeruginosa [3])?
Answer: 2 µg/mL (≈ 5.36 µM)

Question: What about the MIC (Pseudomonas aeruginosa [4]) of the same molecule?
Answer: 8 µg/mL (≈ 21.4 µM)

Question: And the MIC (Escherichia coli [5])?
Answer: ≤ 0.03 µg/mL

Question: Which MIC (Escherichia coli [1]) does the source give for Cc1c(N2CCNCC2)c(F)cc2c(CN)cc(=O)n(C3CC3)c12 here?
Answer: 0.25 to 4 µg/mL (≈ 0.757 to 12.1 µM)

Question: And the MIC (Pseudomonas aeruginosa [2])?
Answer: 4 to 8 µg/mL (≈ 12.1 to 24.2 µM)

Question: And the MIC (Klebsiella pneumoniae)?
Answer: 0.5 to 2 µg/mL (≈ 1.51 to 6.05 µM)

Question: And the MIC (Pseudomonas aeruginosa [3])?
Answer: 0.5 to 1 µg/mL (≈ 1.51 to 3.03 µM)

Question: What about the MIC (Pseudomonas aeruginosa [4]) of the same molecule?
Answer: 1 to 2 µg/mL (≈ 3.03 to 6.05 µM)

Question: What about the MIC (Escherichia coli [5]) of the same molecule?
Answer: 0.06 to 1 µg/mL (≈ 0.182 to 3.03 µM)

Question: What does the source list for Cc1c(N2CC[C@@H]([C@H](C)N)C2)c(F)cc2c(OCCN(C)C)cc(=O)n(C3CC3)c12?
Answer: MIC (Escherichia coli [1]): 1 µg/mL (≈ 2.4 µM); MIC (Pseudomonas aeruginosa [2]): 8 µg/mL (≈ 19.2 µM); MIC (Klebsiella pneumoniae): 4 µg/mL (≈ 9.6 µM); MIC (Pseudomonas aeruginosa [3]): 4 µg/mL (≈ 9.6 µM); MIC (Pseudomonas aeruginosa [4]): 8 µg/mL (≈ 19.2 µM)

Question: With Cc1c(N2CC[C@@H]([C@H](C)N)C2)c(F)cc2c(C#N)cc(=O)n(C3CC3)c12 as the molecule, how does the MIC (Escherichia coli [1]) read?
Answer: 1 µg/mL (≈ 2.82 µM)

Question: What about the MIC (Pseudomonas aeruginosa [2]) of the same molecule?
Answer: 4 µg/mL (≈ 11.3 µM)

Question: What about the MIC (Klebsiella pneumoniae) of the same molecule?
Answer: 2 µg/mL (≈ 5.64 µM)

Question: And the MIC (Pseudomonas aeruginosa [3])?
Answer: 1 µg/mL (≈ 2.82 µM)

Question: And the MIC (Pseudomonas aeruginosa [4])?
Answer: 1 µg/mL (≈ 2.82 µM)

Question: What about the MIC (Escherichia coli [5]) of the same molecule?
Answer: ≤ 0.03 µg/mL

Question: Which results are given for Cc1c(N2CC[C@@H]([C@H](C)N)C2)c(F)cc2c(=O)n(N)c(=O)n(C3CC3)c12?
Answer: MIC (Escherichia coli [1]): 1 µg/mL (≈ 2.77 µM); MIC (Pseudomonas aeruginosa [2]): 4 µg/mL (≈ 11.1 µM); IC50 [8]: 220 nM; MIC (Klebsiella pneumoniae): 2 µg/mL (≈ 5.53 µM); MIC (Pseudomonas aeruginosa [3]): 1 µg/mL (≈ 2.77 µM); MIC (Pseudomonas aeruginosa [4]): 2 µg/mL (≈ 5.53 µM)

Question: Which MIC (Escherichia coli [1]) does the source give for Cc1c(N2CC3CC3(N)C2)c(F)cc2c(CN)c(Cl)c(=O)n(C3CC3)c12 (stereo not given) here?
Answer: 0.25 µg/mL (≈ 0.663 µM)

Question: What about the MIC (Pseudomonas aeruginosa [2]) of the same molecule?
Answer: 8 µg/mL (≈ 21.2 µM)

Question: And the MIC (Klebsiella pneumoniae)?
Answer: 0.5 µg/mL (≈ 1.33 µM)

Question: And the MIC (Pseudomonas aeruginosa [3])?
Answer: 1 µg/mL (≈ 2.65 µM)

Question: And the MIC (Pseudomonas aeruginosa [4])?
Answer: 2 µg/mL (≈ 5.31 µM)

Question: What about the MIC (Escherichia coli [5]) of the same molecule?
Answer: 0.06 µg/mL (≈ 0.159 µM)

Question: With Cc1c(N2CCC3CC3(N)C2)c(F)cc2c(CN)cc(=O)n(C3CC3)c12 (stereo not given) as the molecule, how does the MIC (Escherichia coli [1]) read?
Answer: 4 µg/mL (≈ 11.2 µM)

Question: And the MIC (Pseudomonas aeruginosa [2])?
Answer: 16 µg/mL (≈ 44.9 µM)

Question: What about the MIC (Klebsiella pneumoniae) of the same molecule?
Answer: 4 µg/mL (≈ 11.2 µM)

Question: And the MIC (Pseudomonas aeruginosa [3])?
Answer: 4 µg/mL (≈ 11.2 µM)

Question: And the MIC (Pseudomonas aeruginosa [4])?
Answer: 16 µg/mL (≈ 44.9 µM)

Question: And the MIC (Escherichia coli [5])?
Answer: 1 µg/mL (≈ 2.81 µM)

Question: What does the source list for Cc1c(N2CC[C@@H]([C@H](C)N)C2)c(F)cc2c(CO)cc(=O)n(C3CC3)c12?
Answer: MIC (Escherichia coli [1]): 16 µg/mL (≈ 44.5 µM); MIC (Pseudomonas aeruginosa [2]): 16 µg/mL (≈ 44.5 µM); MIC (Klebsiella pneumoniae): 32 µg/mL (≈ 89 µM); MIC (Pseudomonas aeruginosa [3]): 4 µg/mL (≈ 11.1 µM); MIC (Pseudomonas aeruginosa [4]): 8 µg/mL (≈ 22.3 µM); MIC (Escherichia coli [5]): 0.25 µg/mL (≈ 0.696 µM)

Question: What does the source list for Cc1c(N2C[C@@]3(C)C[C@@]3(N)C2)c(F)cc2c(CN)cc(=O)n(C3CC3)c12 (racemic)?
Answer: MIC (Escherichia coli [1]): 0.125 µg/mL (≈ 0.351 µM); MIC (Pseudomonas aeruginosa [2]): 4 µg/mL (≈ 11.2 µM); MIC (Klebsiella pneumoniae): 0.25 µg/mL (≈ 0.701 µM); MIC (Pseudomonas aeruginosa [3]): 1 µg/mL (≈ 2.81 µM); MIC (Pseudomonas aeruginosa [4]): 2 µg/mL (≈ 5.61 µM); MIC (Escherichia coli [5]): ≤ 0.03 µg/mL

Question: Which MIC (Escherichia coli [1]) does the source give for NCc1cc(=O)n(C2CC2)c2c(OC(F)F)c(N3CC4CC4(N)C3)c(F)cc12 (stereo not given) here?
Answer: 2 µg/mL (≈ 5.07 µM)

Question: And the MIC (Pseudomonas aeruginosa [2])?
Answer: > 32 µg/mL

Question: And the MIC (Klebsiella pneumoniae)?
Answer: 8 µg/mL (≈ 20.3 µM)

Question: And the MIC (Pseudomonas aeruginosa [3])?
Answer: 8 µg/mL (≈ 20.3 µM)

Question: And the MIC (Pseudomonas aeruginosa [4])?
Answer: 32 µg/mL (≈ 81.1 µM)

Question: And the MIC (Escherichia coli [5])?
Answer: 1 µg/mL (≈ 2.54 µM)

Question: Which results are given for Cc1c(N2C[C@@H]3[C@@H](N)[C@@H]3C2)c(F)cc2c(CN)cc(=O)n(C3CC3)c12?
Answer: MIC (Escherichia coli [1]): 1 µg/mL (≈ 2.92 µM); MIC (Pseudomonas aeruginosa [2]): 16 µg/mL (≈ 46.7 µM); MIC (Klebsiella pneumoniae): 4 µg/mL (≈ 11.7 µM); MIC (Pseudomonas aeruginosa [3]): 1 µg/mL (≈ 2.92 µM); MIC (Pseudomonas aeruginosa [4]): 2 µg/mL (≈ 5.84 µM); MIC (Escherichia coli [5]): 0.25 µg/mL (≈ 0.73 µM)

Question: With NCc1cc(=O)n(C2CC2)c2cc(N3CC4CC4(N)C3)c(F)cc12 (stereo not given) as the molecule, how does the MIC (Escherichia coli [1]) read?
Answer: 1 µg/mL (≈ 3.05 µM)

Question: What about the MIC (Pseudomonas aeruginosa [2]) of the same molecule?
Answer: 16 µg/mL (≈ 48.7 µM)

Question: And the MIC (Klebsiella pneumoniae)?
Answer: 4 µg/mL (≈ 12.2 µM)

Question: And the MIC (Pseudomonas aeruginosa [3])?
Answer: 2 µg/mL (≈ 6.09 µM)

Question: What about the MIC (Pseudomonas aeruginosa [4]) of the same molecule?
Answer: 4 µg/mL (≈ 12.2 µM)

Question: And the MIC (Escherichia coli [5])?
Answer: 0.5 µg/mL (≈ 1.52 µM)
